Results reported in patent publication US20230048888A1, “USE OF TRIAZOLOTRIAZINE DERIVATIVE IN TREATMENT OF DISEASES” (ZHEJIANG VIMGREEN PHARMACEUTICALS, LTD., priority 2019, published 2023).
Like-named read-outs stand apart in the source and are kept apart here.

Experiment: Pharmacokinetics of acetate of Compound 22 in SD rats with single and repeated administration
Assay type: in vivo
Conditions: Sprague-Dawley, rat, plasma; for AUC(0-t): read-out: AUC0-t; for Cmax: read-out: Cmax; for half-life: read-out: T1/2 (converted); for Tmax: read-out: Tmax (median)
Experimental: The formulation for Group 5 was prepared before administration on Day 1, and then, divided into daily doses and stored at 5±3° C. After taking out the formulations on the day of administration, the formulations should be let stand at room temperature for at least 30 minutes before administration.
After blood collection, the blood collection tube containing the anticoagulant was turned upside down several times to mix well, and placed on wet ice before centrifugation. Within 60 minutes after blood collection, the samples were centrifuged at 2000 g for 10 minutes at 2-8° C. to separate red blood cells, thereby obtaining plasma samples. The plasma samples were transferred to cryovials and stored at −75±15° C. until analysis.
Blood samples were collected from SD rats at room temperature before administration and within 24 hours after administration. All collected samples were placed on wet ice before centrifugation and stored at −75±15° C. until analysis.
The mass spectrometer was Applied Biosystems/AB Sciex Triple Quad 4500.
Pharmacokinetic data was calculated using the linear logarithmic trapezoidal method, with a weight of 1/(Y*Y). Samples with the sample concentration below the lower limit of quantification were excluded from the calculation of pharmacokinetic parameters. […] The mean time to peak (Tmax) was represented as a median.

[1] = both sexes, po, 63 mg/kg, Group 5 PO 63 mg/kg repeated, Day 7, Overall
[2] = both sexes, po, 189 mg/kg, Group 4 PO 189 mg/kg single, Overall
[3] = female, iv, 2 mg/kg, Group 1 IV 2.0 mg/kg single, Female
[4] = female, po, 21 mg/kg, Group 2 PO 21 mg/kg single, Female
[5] = female, po, 63 mg/kg, Group 3 PO 63 mg/kg single, Female
[6] = female, po, 63 mg/kg, Group 5 PO 63 mg/kg repeated, Day 1, Female
[7] = female, po, 63 mg/kg, Group 5 PO 63 mg/kg repeated, Day 7, Female
[8] = female, po, 189 mg/kg, Group 4 PO 189 mg/kg single, Female
[9] = male, iv, 2 mg/kg, Group 1 IV 2.0 mg/kg single, Male
[10] = male, po, 21 mg/kg, Group 2 PO 21 mg/kg single, Male
[11] = male, po, 63 mg/kg, Group 3 PO 63 mg/kg single, Male
[12] = male, po, 63 mg/kg, Group 5 PO 63 mg/kg repeated, Day 1, Male
[13] = male, po, 63 mg/kg, Group 5 PO 63 mg/kg repeated, Day 7, Male
[14] = male, po, 189 mg/kg, Group 4 PO 189 mg/kg single, Male

## CC(=O)O.Nc1nc(NCCc2ccc(NC3COC3)cc2)nc2nc(-c3ccco3)nn12 [Acetate of Compound 22, 2-(furan-2-yl)-N5-(4-(oxetane-3-ylamino)phenethyl)-[1,2,4]triazolo[1,5-a][1,3,5]triazine-5,7-diamine acetate]
[1]
  AUC(0-t): 127 ± 40.7 µg·h/mL
  Cmax: 38300 ± 8840 ng/mL
  half-life: 3.21 ± 0.615 h
  Tmax: 1 h
[2]
  AUC(0-t): 241 ± 39.1 µg·h/mL
  Cmax: 51800 ± 11800 ng/mL
  half-life: 5.26 ± 3.05 h
  Tmax: 2 h
[3]
  AUC(0-t): 5.85 ± 0.149 µg·h/mL
  half-life: 4.7 ± 3.22 h
[4]
  AUC(0-t): 43.5 ± 4.15 µg·h/mL
  Cmax: 20100 ± 3860 ng/mL
  half-life: 3.73 ± 0.771 h
  Tmax: 0.5 h
[5]
  AUC(0-t): 137 ± 40.4 µg·h/mL
  Cmax: 30500 ± 9710 ng/mL
  half-life: 2.91 ± 0.949 h
  Tmax: 1 h
[6]
  AUC(0-t): 142 ± 23.1 µg·h/mL
  Cmax: 37700 ± 2380 ng/mL
  half-life: 2.4 ± 0.523 h
  Tmax: 2 h
[7]
  AUC(0-t): 157 ± 36.9 µg·h/mL
  Cmax: 45600 ± 1550 ng/mL
  half-life: 2.73 ± 0.359 h
  Tmax: 1 h
[8]
  AUC(0-t): 248 ± 55.6 µg·h/mL
  Cmax: 59600 ± 12100 ng/mL
  half-life: 7.63 h
  Tmax: 1 h
[9]
  AUC(0-t): 4.87 ± 0.601 µg·h/mL
  half-life: 1.43 h
[10]
  AUC(0-t): 42 ± 10.5 µg·h/mL
  Cmax: 16600 ± 4100 ng/mL
  half-life: 3.21 ± 0.304 h
  Tmax: 0.5 h
[11]
  AUC(0-t): 87.3 ± 3.04 µg·h/mL
  Cmax: 24200 ± 2340 ng/mL
  half-life: 3.1 ± 0.251 h
  Tmax: 1 h
[12]
  AUC(0-t): 79.7 ± 31.5 µg·h/mL
  Cmax: 19900 ± 9080 ng/mL
  half-life: 4.26 ± 2.04 h
  Tmax: 1 h
[13]
  AUC(0-t): 98.1 ± 14.7 µg·h/mL
  Cmax: 31000 ± 5750 ng/mL
  half-life: 3.69 ± 0.342 h
  Tmax: 1 h
[14]
  AUC(0-t): 235 ± 24.3 µg·h/mL
  Cmax: 44100 ± 4710 ng/mL
  half-life: 3.68 ± 1.22 h
  Tmax: 4 h
